Target: T1, human Bradykinin B1 receptor (Homo sapiens, UniProt P46663)
T1 construct: host or cells: CHO-K1
T1 sequence (P46663 1-353): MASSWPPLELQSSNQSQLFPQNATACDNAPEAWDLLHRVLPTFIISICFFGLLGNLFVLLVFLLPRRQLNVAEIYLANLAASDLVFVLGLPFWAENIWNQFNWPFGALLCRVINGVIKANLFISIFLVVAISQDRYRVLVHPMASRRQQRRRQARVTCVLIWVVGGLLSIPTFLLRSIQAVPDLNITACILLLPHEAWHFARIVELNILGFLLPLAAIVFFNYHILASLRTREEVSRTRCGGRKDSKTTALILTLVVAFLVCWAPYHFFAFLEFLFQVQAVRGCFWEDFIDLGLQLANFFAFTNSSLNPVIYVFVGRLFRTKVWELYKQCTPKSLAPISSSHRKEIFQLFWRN
Assay: Calcium flux Assay (FLIPR) with recombinant CHO-K1 cells expressing human Bradykinin B1 receptor, in presence (hB1 IC50) or absence (hB1 free IC50) of 0.1% BSA
Assay type: cell-based
Conditions: in absence of 0.1% BSA, read-out: hB1 free IC50

IC50 [µM]	Structure (SMILES)
0.053	COc1ccc(-c2ccc(NC(=O)C3(c4ccc(C(F)(F)F)cc4F)CC3)cc2-c2nnn[nH]2)cc1C(F)(F)F [Example 131, 1-[2-fluoro-4-(trifluoromethyl)phenyl]-N-[4′-methoxy-2-(1H-tetrazol-5-yl)-3′-(trifluoromethyl)biphenyl-4-yl]cyclopropane carboxamide]
0.234	COc1ccc(-c2ccc(NC(=O)C3(c4cccc(Cl)c4)CC3)cc2-c2nnn[nH]2)cc1C(F)(F)F [Example 132, 1-(3-chlorophenyl)-N-[4′-methoxy-2-(1H-tetrazol-5-yl)-3′-(trifluoromethyl)biphenyl-4-yl]cyclopropane carboxamide]
0.217	COc1cc(-c2ccc(NC(=O)C3(c4ccc(C(F)(F)F)cc4F)CC3)cc2-c2nnn[nH]2)cc(C(F)(F)F)c1 [Example 133, 1-[2-fluoro-4-(trifluoromethyl)phenyl]-N-[3′-methoxy-2-(1H-tetrazol-5-yl)-5′-(trifluoromethyl)biphenyl-4-yl]cyclopropane carboxamide]
0.572	COc1cc(-c2ccc(NC(=O)C3(c4cccc(Cl)c4)CC3)cc2-c2nnn[nH]2)cc(C(F)(F)F)c1 [Example 134, 1-(3-chlorophenyl)-N-[3′-methoxy-2-(1H-tetrazol-5-yl)-5′-(trifluoromethyl)biphenyl-4-yl]cyclopropane carboxamide]
0.201	O=C(Nc1ccc(-c2ccc(C(F)(F)F)nc2)c(-c2nnn[nH]2)c1)C1(c2ccc(F)cc2F)CC1 [Example 142, 1-(2,4-difluorophenyl)-N-{3-(1H-tetrazol-5-yl)-4-[6-(trifluoromethyl)pyridin-3-yl]phenyl} cyclopropane-carboxamide]
0.144	O=C(Nc1ccc(-c2ccc(C(F)(F)F)nc2)c(-c2nnn[nH]2)c1)C1(c2cc(F)c(F)cc2F)CC1 [Example 143, N-{3-(1H-tetrazol-5-yl)-4-[6-(trifluoromethyl)pyridin-3-yl]phenyl}-1-(2,4,5-trifluorophenyl) cyclopropane-carboxamide]
0.194	O=C(Nc1ccc(-c2ccc(C(F)(F)F)nc2)c(-c2nnn[nH]2)c1)C1(c2ccc(F)cn2)CC1 [Example 145, 1-(5-fluoropyridin-2-yl)-N-{3-(1H-tetrazol-5-yl)-4-[6-(trifluoromethyl)pyridin-3-yl]phenyl} cyclopropane-carboxamide]
0.1	COc1cc(-c2ccc(NC(=O)C3(c4cccc(Cl)c4)CC3)cc2-c2nnn[nH]2)cnc1C(F)(F)F [Example 146, 1-(3-chlorophenyl)-N-{4-[5-methoxy-6-(trifluoromethyl)pyridin-3-yl]-3-(1H-tetrazol-5-yl)phenyl} cyclopropane-carboxamide]
0.0403	CCOc1ncc(-c2ccc(NC(=O)C3(c4cccc(Cl)c4F)CC3)cc2-c2nnn[nH]2)cc1C(F)(F)F [Example 159, 1-(3-chloro-2-fluorophenyl)-N-{4-[6-ethoxy-5-(trifluoromethyl)pyridin-3-yl]-3-(1H-tetrazol-5-yl)phenyl} cyclopropane-carboxamide]
1.13	CCOc1cc(-c2ccc(NC(=O)C3(c4cccc(Cl)c4)CC3)cc2-c2nnn[nH]2)cc(C(F)(F)F)n1 [Example 166, 1-(3-chlorophenyl)-N-{4-[2-ethoxy-6-(trifluoromethyl)pyridin-4-yl]-3-(1H-tetrazol-5-yl)phenyl} cyclopropane-carboxamide]
0.634	O=C(Nc1ccc(-c2cc(F)ncc2F)c(-c2nnn[nH]2)c1)C1(c2ccc(C(F)(F)F)cc2F)CC1 [Example 167, N-[4-(2,5-difluoropyridin-4-yl)-3-(1H-tetrazol-5-yl)phenyl]-1-[2-fluoro-4-(trifluoromethyl)phenyl] cyclopropane-carboxamide]
0.968	O=C(Nc1ccc(-c2ccnc(C(F)F)c2)c(-c2nnn[nH]2)c1)C1(c2cccc(Cl)c2)CC1 [Example 170, 1-(3-chlorophenyl)-N-{4-[2-(difluoromethyl)pyridin-4-yl]-3-(1H-tetrazol-5-yl)phenyl} cyclopropane-carboxamide]
0.433	O=C(Nc1ccc(-c2ccnc(C(F)(F)F)c2)c(-c2nnn[nH]2)c1)C1(c2cccc(Cl)c2F)CC1 [Example 172, 1-(3-chloro-2-fluorophenyl)-N-{3-(1H-tetrazol-5-yl)-4-[2-(trifluoromethyl)pyridin-4-yl]phenyl} cyclopropane-carboxamide]
1.11	O=C(Nc1ccc(-c2ccnc(C(F)(F)F)c2)c(-c2nnn[nH]2)c1)C1(c2ccc(F)cn2)CC1 [Example 174, 1-(5-fluoropyridin-2-yl)-N-{3-(1H-tetrazol-5-yl)-4-[2-(trifluoromethyl)pyridin-4-yl]phenyl} cyclopropane-carboxamide]
0.258	O=C(Nc1ccc(-c2ccnc(C(F)(F)F)c2)c(-c2nnn[nH]2)c1)C1(c2ccc(F)c(Cl)c2)CC1 [Example 176, 1-(3-chloro-4-fluorophenyl)-N-{3-(1H-tetrazol-5-yl)-4-[2-(trifluoromethyl)pyridin-4-yl]phenyl} cyclopropane-carboxamide]
0.274	O=C(Nc1ccc(-c2ccnc(C(F)(F)F)c2)c(-c2nnn[nH]2)c1)C1(c2ccc(Cl)c(F)c2)CC1 [Example 177, 1-(4-chloro-3-fluorophenyl)-N-{3-(1H-tetrazol-5-yl)-4-[2-(trifluoromethyl)pyridin-4-yl]phenyl} cyclopropane-carboxamide]
0.287	O=C(Nc1ccc(-c2ccnc(C(F)(F)F)c2)c(-c2nnn[nH]2)c1)C1(c2ccc(F)cc2F)CC1 [Example 178, 1-(2,4-difluorophenyl)-N-{3-(1H-tetrazol-5-yl)-4-[2-(trifluoromethyl)pyridin-4-yl]phenyl} cyclopropane-carboxamide]
0.393	O=C(Nc1ccc(-c2ccnc(C(F)(F)F)c2)c(-c2nnn[nH]2)c1)C1(c2cc(F)ccc2F)CC1 [Example 179]

Same assay, conditions: in presence of 0.1% BSA, read-out: hB1 IC50

IC50 [µM]	Structure (SMILES)
0.0392	COc1cncc(-c2ccc(NC(=O)C3(c4ccc(F)cc4F)CC3)cc2-c2nnn[nH]2)c1 [Example 150, 1-(2,4-difluorophenyl)-N-[4-(5-methoxypyridin-3-yl)-3-(1H-tetrazol-5-yl)phenyl] cyclopropane-carboxamide]
0.127	COc1cncc(-c2ccc(NC(=O)C3(c4cccc(C)c4)CC3)cc2-c2nnn[nH]2)c1 [Example 151, N-[4(5-methoxypyridin-3-yl)-3-(1H-tetrazol-5-yl)phenyl]-1-(3-methylphenyl) cyclopropane-carboxamide]
0.0235	COc1cncc(-c2ccc(NC(=O)C3(c4cccc(C(F)(F)F)c4)CC3)cc2-c2nnn[nH]2)c1 [Example 152, N-[4-(5-methoxypyridin-3-yl)-3-(1H-tetrazol-5-yl)phenyl]-1-[3-(trifluoromethyl)phenyl] cyclopropane-carboxamide]
0.0271	COc1cncc(-c2ccc(NC(=O)C3(c4ccc(C(F)(F)F)cc4)CC3)cc2-c2nnn[nH]2)c1 [Example 154, N-[4-(5-methoxypyridin-3-yl)-3-(1H-tetrazol-5-yl)phenyl]-1-[4-(trifluoromethyl)phenyl] cyclopropane-carboxamide]
0.22	CCOc1cncc(-c2ccc(NC(=O)C3(c4cccc(C(F)(F)F)c4)CC3)cc2-c2nnn[nH]2)c1 [Example 155, N-[4-(5-ethoxypyridin-3-yl)-3-(1H-tetrazol-5-yl)phenyl]-1-[3-(trifluoromethyl)phenyl] cyclopropane-carboxamide]
0.14	CCOc1cncc(-c2ccc(NC(=O)C3(c4ccc(F)cc4F)CC3)cc2-c2nnn[nH]2)c1 [Example 157, 1-(2,4-difluorophenyl)-N-[4-(5-ethoxypyridin-3-yl)-3-(1H-tetrazol-5-yl)phenyl] cyclopropane-carboxamide]
0.764	CCOc1ncc(-c2ccc(NC(=O)C3(c4cccc(Cl)c4)CC3)cc2-c2nnn[nH]2)cc1C(F)(F)F [Example 158, 1-(3-chlorophenyl)-N-{4-[6-ethoxy-5-(trifluoromethyl)pyridin-3-yl]-3-(1H-tetrazol-5-yl)phenyl} cyclopropane-carboxamide]
0.585	CCOc1ncc(-c2ccc(NC(=O)C3(c4cccc(Cl)c4F)CC3)cc2-c2nnn[nH]2)cc1C(F)(F)F [Example 159, 1-(3-chloro-2-fluorophenyl)-N-{4-[6-ethoxy-5-(trifluoromethyl)pyridin-3-yl]-3-(1H-tetrazol-5-yl)phenyl} cyclopropane-carboxamide]
0.0249	CCOc1ncc(-c2ccc(NC(=O)C3(c4ccc(C(F)(F)F)cc4)CC3)cc2-c2nnn[nH]2)cc1C [Example 161, N-[4-(6-ethoxy-5-methylpyridin-3-yl)-3-(1H-tetrazol-5-yl)phenyl]-1-[4-(trifluoromethyl)phenyl] cyclopropane-carboxamide]
0.059	CCOc1ncc(-c2ccc(NC(=O)C3(c4ccc(F)cc4F)CC3)cc2-c2nnn[nH]2)cc1C [Example 162, 1-(2,4-difluorophenyl)-N-[4-(6-ethoxy-5-methylpyridin-3-yl)-3-(1H-tetrazol-5-yl)phenyl] cyclopropane-carboxamide]
0.0145	CCOc1ncc(-c2ccc(NC(=O)C3(c4ccc(C(F)(F)F)cc4)CC3)cc2-c2nnn[nH]2)cc1F [Example 164, N-[4-(6-ethoxy-5-fluoropyridin-3-yl)-3-(1H-tetrazol-5-yl)phenyl]-1-[4-(trifluoromethyl)phenyl] cyclopropane-carboxamide]
0.0641	CCOc1ncc(-c2ccc(NC(=O)C3(c4ccc(F)cc4F)CC3)cc2-c2nnn[nH]2)cc1F [Example 165, 1-(2,4-difluorophenyl)-N-[4-(6-ethoxy-5-fluoropyridin-3-yl)-3-(1H-tetrazol-5-yl)phenyl] cyclopropane-carboxamide]
2.16	CCOc1cc(-c2ccc(NC(=O)C3(c4cccc(Cl)c4)CC3)cc2-c2nnn[nH]2)cc(C(F)(F)F)n1 [Example 166, 1-(3-chlorophenyl)-N-{4-[2-ethoxy-6-(trifluoromethyl)pyridin-4-yl]-3-(1H-tetrazol-5-yl)phenyl} cyclopropane-carboxamide]
0.117	CN(C)c1ccc(-c2ccc(NC(=O)C3(c4cccc(Cl)c4)CC3)cc2-c2nnn[nH]2)cn1 [Example 169, 1-(3-chlorophenyl)-N-{4-[6-(dimethylamino)pyridin-3-yl]-3-(1H-tetrazol-5-yl)phenyl} cyclopropane-carboxamide]
0.347	O=C(Nc1ccc(-c2ccnc(C(F)(F)F)c2)c(-c2nnn[nH]2)c1)C1(c2cccc(Cl)c2F)CC1 [Example 172, 1-(3-chloro-2-fluorophenyl)-N-{3-(1H-tetrazol-5-yl)-4-[2-(trifluoromethyl)pyridin-4-yl]phenyl} cyclopropane-carboxamide]

From patent US20210317092A1 (BAYER PHARMA AKTIENGESELLSCHAFT, priority 2016, published 2021)
